In PMC6269038, “A Novel Class of Selective Acetylcholinesterase Inhibitors: Synthesis and Evaluation of (E)-2-(Benzo[d]thiazol-2-yl)-3-heteroarylacrylonitriles” (Molecules, 2012):
Values joined by “and” are separate entries in the source; they are usually repeats but may differ in a detail not shown here. Equal entries are not always repeated.

What was measured:
[1] = target: T1, butyrylcholinesterase (BuChE) from equine serum (Equus caballus, UniProt P81908); experiment: BuChE inhibition, Ellman method, 96-well plates; assay type: biochemical; settings: average from three independent experiments, ^c = IC50 greater than 0.5 mg/mL
T1 construct: an AChE/BuChE solution (50 μL, 0.25 unit/mL) from Electroporus electricus and equine serum, respectively; from tissue; host or cells: equine serum
T1 sequence (P81908 whole entry): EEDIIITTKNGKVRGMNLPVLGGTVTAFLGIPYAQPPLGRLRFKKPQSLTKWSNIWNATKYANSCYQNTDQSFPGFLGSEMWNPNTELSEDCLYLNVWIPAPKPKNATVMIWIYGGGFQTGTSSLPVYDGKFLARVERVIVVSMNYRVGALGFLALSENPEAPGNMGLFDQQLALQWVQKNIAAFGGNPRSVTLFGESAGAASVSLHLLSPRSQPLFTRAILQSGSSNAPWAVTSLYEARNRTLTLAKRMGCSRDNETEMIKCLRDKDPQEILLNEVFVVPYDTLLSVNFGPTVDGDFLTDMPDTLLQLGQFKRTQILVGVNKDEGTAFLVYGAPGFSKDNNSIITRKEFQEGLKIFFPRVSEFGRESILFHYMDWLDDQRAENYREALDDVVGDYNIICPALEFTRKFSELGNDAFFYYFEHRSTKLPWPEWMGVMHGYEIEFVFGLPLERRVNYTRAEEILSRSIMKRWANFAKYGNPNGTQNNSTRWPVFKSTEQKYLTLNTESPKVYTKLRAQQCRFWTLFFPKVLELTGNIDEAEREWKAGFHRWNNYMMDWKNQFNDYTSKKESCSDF

[2] = target: AChE (Electrophorus electricus, UniProt O42275); experiment: Kinetic characterization of AChE inhibition (Lineweaver-Burk, Ellman's method); assay type: biochemical; settings: substrate acetylthiocholine; for type of AChE inhibition: Lineweaver-Burk plots, AChE 0.02U; for Vmax: in presence of inhibitor, nonlinear regression
AChE, sequence (O42275 24-633): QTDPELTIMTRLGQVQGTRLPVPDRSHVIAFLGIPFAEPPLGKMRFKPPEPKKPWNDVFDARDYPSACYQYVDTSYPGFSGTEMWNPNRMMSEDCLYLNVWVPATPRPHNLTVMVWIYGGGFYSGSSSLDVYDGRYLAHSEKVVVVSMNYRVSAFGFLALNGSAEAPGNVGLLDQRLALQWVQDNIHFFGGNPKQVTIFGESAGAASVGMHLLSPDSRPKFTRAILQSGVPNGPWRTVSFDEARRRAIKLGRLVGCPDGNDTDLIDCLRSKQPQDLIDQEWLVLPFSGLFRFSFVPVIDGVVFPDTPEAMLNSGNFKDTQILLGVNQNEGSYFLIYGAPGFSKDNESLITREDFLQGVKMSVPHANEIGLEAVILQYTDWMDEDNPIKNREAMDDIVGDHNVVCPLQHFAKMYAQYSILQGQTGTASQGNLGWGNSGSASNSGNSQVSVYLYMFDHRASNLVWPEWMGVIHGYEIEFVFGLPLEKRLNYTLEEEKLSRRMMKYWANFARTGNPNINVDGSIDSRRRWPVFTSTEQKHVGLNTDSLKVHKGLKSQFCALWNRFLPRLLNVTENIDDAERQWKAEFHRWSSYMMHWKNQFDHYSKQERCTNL
Protocol: The kinetics of this new class of AChE inhibitors were studied in detail using compounds 7f and 7g as examples. The nature of AChE inhibition, caused by these two compounds, was investigated by the graphical analysis of steady-state inhibition data (Figure 2A,B). […] The values of Km and Vmax were calculated by nonlinear regression according to studies by Abell et al., where Vmax was maintained at the same value while Km value was increased.
Figure 2 Lineweaver-Burk plot of AChE (0.02U) with substrate acetylthiocholine, in the absence and presence of inhibitors 7g (A), 7f (B).
Kinetic characterization of AChE was performed by means of Ellman’s method. […]. Enzyme kinetic characterization studies were performed under same incubation conditions as described above using acetylthiocholine as substrate and DTNB was used as chromophoric reagent. A parallel control with no inhibitor in the mixture was used for comparison. Each concentration was analyzed in triplicate; and Lineweaver-Burk (1/V vs. 1/[S]) plot was constructed using Sigma Plot 10.0 version software.

[3] = target: AChE (Electrophorus electricus) (Electrophorus electricus, UniProt O42275); experiment: biochemical; settings: for IC50: AChE from Electrophorus electricus, average from three independent experiments, ^c = IC50 greater than 0.5 mg/mL
AChE (Electrophorus electricus), sequence (O42275 24-633): as above

| SMILES | IC50 [1] | type of AChE inhibition [2] | Vmax [2] | IC50 [3] | Selectivity for AChE (selectivity index) ([3]; defined as IC50 (BuChE)/IC50 (AChE)) |
| --- | --- | --- | --- | --- | --- |
| N#C/C(=C\c1cccnc1)c1nc2ccccc2s1 [7f, (E)-2-(Benzo[d]thiazol-2-yl)-3-(pyridin-3-yl)acrylonitrile] | > 2290 µM | competitive inhibitors | 0.07078 | 155 µM and 103 µM | – |
| N#C/C(=C\c1ccccn1)c1nc2ccccc2s1 [7k, (E)-2-(Benzo[d]thiazol-2-yl)-3-(pyridin-2-yl)acrylonitrile] | > 1900 µM | – | – | > 1900 µM | – |
| Cc1nn(-c2ccccc2)c(Cl)c1/C=C(\C#N)c1nc2ccccc2s1 [7h, (E)-2-(Benzo[d]thiazol-2-yl)-3-(5-chloro-3-methyl-1-phenyl-1H-pyrazol-4-yl)acrylonitrile] | > 1330 µM | – | – | > 1330 µM | – |
| N#C/C(=C\c1ccc(-c2ccc(Cl)cc2)o1)c1nc2ccccc2s1 [7g, (E)-2-(Benzo[d]thiazol-2-yl)-3-[5-(4-chlorophenyl)furan-2-yl]acrylonitrile] | 474 µM | competitive inhibitors | 0.2236 | 64 ± 0.6 µM | 7.40 |
| N#C/C(=C\c1cc(-c2ccccc2)on1)c1nc2ccccc2s1 [7b, (E)-2-(Benzo[d]thiazol-2-yl)-3-(5-phenylisoxazol-3-yl)acrylonitrile] | 1396.6 ± 0.8 µM | – | – | 1179 ± 0.5 µM | – |
| N#C/C(=C\c1ccc(N2CCOCC2)cc1)c1nc2ccccc2s1 [7d, (E)-2-(Benzo[d]thiazol-2-yl)-3-(4-morpholin-4-ylphenyl)acrylonitrile] | > 1440 µM | – | – | 504 ± 1 µM | – |
| N#C/C(=C\c1cc(-c2ccc(F)cc2)on1)c1nc2ccccc2s1 [7c, (E)-2-(Benzo[d]thiazol-2-yl)-3-[5-(4-fluorophenyl)isoxazol-3-yl]acrylonitrile] | > 1440 µM | – | – | 699 ± 0.3 µM | – |
| N#C/C(=C\c1ncc[nH]1)c1nc2ccccc2s1 [7e, (E)-2-(Benzo[d]thiazol-2-yl)-3-(1H-imidazol-2-yl)acrylonitrile] | > 1980 µM | – | – | 303 ± 0.8 µM | – |
| N#C/C(=C\c1ccco1)c1nc2ccccc2s1 [7i, (E)-2-(Benzo[d]thiazol-2-yl)-3-(2-furyl)acrylonitrile] | 1883 ± 0.8 µM | – | – | > 1980 µM | – |
| Cc1cc(/C=C(\C#N)c2nc3ccccc3s2)no1 [7a, (E)-2-(Benzo[d]thiazol-2-yl)-3-(5-methylisoxazol-3-yl)acrylonitrile] | > 1870 µM | – | – | 1274 ± 0.7 µM | – |
| N#C/C(=C\c1ccc(-c2ccccc2)cc1)c1nc2ccccc2s1 [7j, (E)-2-(Benzo[d]thiazol-2-yl)-3-(1,1'-biphenyl-4-yl)acrylonitrile] | 1273 ± 0.7 µM | – | – | > 1480 µM | – |
